Drawing on PubChem BioAssay AID330 (DTP/NCI, 2004), this text covers T/C for 22 compounds.

The experiment deals with P388 leukemia ip, CD2F1 mice, survival T/C. Description: NCI In Vivo Anticancer Drug Screen. Data for tumor model P388 Leukemia (intraperitoneal) in CD2F1 (CDF1) mice. As to conditions: endpoint: median survival time, higher = longer survival. A digest of the protocol: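 Mice carrying the transplanted tumor received test compound or vehicle. Survival was recorded in each group, and the value is the treated-group measurement divided by that of the vehicle-treated control group.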

[1] abbreviates: dose: 50.0 mg/kg/injection, schedule: Q01DX005 (ip), vehicle: saline with Tween-80.
The mark [2] stands for this setting: dose: 100.0 mg/kg/injection, schedule: Q01DX005 (ip), vehicle: saline with Tween-80.
[3] abbreviates: dose: 100.0 mg/kg/injection, schedule: Q01DX009 (ip), vehicle: saline with Tween-80.
Setting [4] is: dose: 200.0 mg/kg/injection, schedule: Q01DX009 (ip), vehicle: saline with Tween-80.
Setting [5] is: dose: 60.0 mg/kg/injection, schedule: Q01DX005 (ip), vehicle: Klucel (hydroxypropylcellulose) (HPC).
[6] abbreviates: dose: 6.25 mg/kg/injection, schedule: Q01DX005 (ip), vehicle: saline with Tween-80.
The mark [7] stands for this setting: dose: 200.0 mg/kg/injection, schedule: Q01DX005 (ip), vehicle: saline with Tween-80.
[8] abbreviates: dose: 60.0 mg/kg/injection, schedule: Q01DX005 (ip), vehicle: saline with Tween-80.
[9] abbreviates: dose: 120.0 mg/kg/injection, schedule: Q01DX005 (ip), vehicle: saline with Tween-80.
[10] abbreviates: dose: 240.0 mg/kg/injection, schedule: Q01DX005 (ip), vehicle: saline with Tween-80.

Several values for one entry are separate records, joined by “and”; a condition that tells them apart may be missing. Equal entries are not always repeated. Inconclusive results and toxic doses are left out.

Turning to `Cc1ccc(SCC#CC#CCS(=O)c2ccc(C)cc2)cc1` (centres undefined), the T/C under setting [1] is 110 % of control and the T/C under setting [2] was 107 % of control.
As to `Nc1cc(=O)[nH]c(N)n1`, the T/C (dose: 6.25 mg/kg/injection, schedule: Q01DX009 (ip), vehicle: saline with Tween-80) was 106 % of control; the T/C (dose: 12.5 mg/kg/injection, schedule: Q01DX009 (ip), vehicle: saline with Tween-80) is 106 % of control; the T/C (dose: 25.0 mg/kg/injection, schedule: Q01DX009 (ip), vehicle: saline with Tween-80) is 106 % of control; the T/C (dose: 50.0 mg/kg/injection, schedule: Q01DX009 (ip), vehicle: saline with Tween-80) is 104 % of control and 108 % of control; the T/C under setting [3] was 107 % of control; the T/C under setting [4] was 104 % of control.
Turning to `CC[N+](C)(CC)C/C(C)=C(/c1ccccc1S(=O)(=O)N(C)C)C(C)C[N+](C)(CC)CC` (centres undefined), the T/C is 102 % of control (dose: 12.5 mg/kg/injection, schedule: Q04DX003 (ip), vehicle: saline) and 103 % of control (dose: 25.0 mg/kg/injection, schedule: Q04DX003 (ip), vehicle: saline).
As for `COC(=O)C1(N2CCOCC2)CCC([C@@H](c2ccccc2)C(C)[N+](=O)[O-])C1` (some centres undefined), the T/C was 100 % of control under setting [5]; 98 % of control (dose: 120.0 mg/kg/injection, schedule: Q01DX005 (ip), vehicle: Klucel (hydroxypropylcellulose) (HPC)); 99 % of control (dose: 240.0 mg/kg/injection, schedule: Q01DX005 (ip), vehicle: Klucel (hydroxypropylcellulose) (HPC)).
As to `Nc1cccc2c1C(=O)c1nc3ccccc3nc1C2=O`, the T/C is 98 % of control (dose: 100.0 mg/kg/injection, schedule: Q01DX001 (ip), vehicle: Klucel + Tween-80); 94 % of control (dose: 200.0 mg/kg/injection, schedule: Q01DX001 (ip), vehicle: Klucel + Tween-80); 94 % of control (dose: 400.0 mg/kg/injection, schedule: Q01DX001 (ip), vehicle: Klucel + Tween-80).
On to `C[S+](C)CCC[S+](C)C`, for which the T/C reads like this: (dose: 50.0 mg/kg/injection, schedule: Q01DX009 (ip), vehicle: saline) 105 % of control; (dose: 100.0 mg/kg/injection, schedule: Q01DX009 (ip), vehicle: saline) 99 % of control; (dose: 200.0 mg/kg/injection, schedule: Q01DX009 (ip), vehicle: saline) 105 % of control.
As for `O=C1C(CN2CCCC2)C(O)=C(c2ccccc2)N1c1ccccc1` (centres undefined), the T/C (dose: 100.0 mg/kg/injection, schedule: Q01DX001 (ip), vehicle: saline with Tween-80) is 102 % of control; the T/C (dose: 200.0 mg/kg/injection, schedule: Q01DX001 (ip), vehicle: saline with Tween-80) was 92 % of control; the T/C (dose: 400.0 mg/kg/injection, schedule: Q01DX001 (ip), vehicle: saline with Tween-80) was 92 % of control.
Regarding `CCOc1ccc(N2C(=O)CC(Sc3ccccc3N)C2=O)cc1` (centres undefined), the T/C under setting [3] was 110 % of control; the T/C under setting [4] is 115 % of control; the T/C (dose: 400.0 mg/kg/injection, schedule: Q01DX009 (ip), vehicle: saline with Tween-80) was 120 % of control.
For `COC(=O)c1cc(O)c2c(c1C(=O)OC)C[C@H]1[C@@H]3CCC4=CC(=O)CC[C@]4(C)[C@H]3CC[C@]21C`, the T/C (dose: 1.5 mg/kg/injection, schedule: Q01DX005 (ip), vehicle: saline with Tween-80) is 93 % of control; the T/C (dose: 3.0 mg/kg/injection, schedule: Q01DX005 (ip), vehicle: saline with Tween-80) is 91 % of control; the T/C under setting [6] was 92 % of control; the T/C under setting [7] is 86 % of control.
As for `Cc1cccc(C(C)(C)C)c1NC(=O)CCc1nnc(N)n1N`, the T/C runs as follows: under setting [1], 111 % of control; under setting [2], 100 % of control; under setting [7], 101 % of control.
Regarding `CCCCCCCCCCCCCC(=O)Oc1ccc[nH]c1=O`, the T/C under setting [1] was 91 % of control; the T/C under setting [2] was 90 % of control; the T/C under setting [7] was 90 % of control; the T/C (dose: 400.0 mg/kg/injection, schedule: Q01DX005 (ip), vehicle: saline with Tween-80) was 98 % of control.
As for `Nc1nc(N)c(N2CCN(Cc3ccccc3)CC2)c(Cl)n1`, the T/C runs as follows: (dose: 15.0 mg/kg/injection, schedule: Q01DX005 (ip), vehicle: Klucel (hydroxypropylcellulose) (HPC)) 101 % of control; (dose: 30.0 mg/kg/injection, schedule: Q01DX005 (ip), vehicle: Klucel (hydroxypropylcellulose) (HPC)) 99 % of control; under setting [5], 99 % of control and 104 % of control.
Turning to `COC(=O)Nc1c2c(nc3ccccc13)-c1ccccc1C(C)(C)C2`, the T/C runs as follows: (dose: 50.0 mg/kg/injection, schedule: Q01DX005 (ip), vehicle: Klucel (hydroxypropylcellulose) (HPC)) 103 % of control; (dose: 100.0 mg/kg/injection, schedule: Q01DX005 (ip), vehicle: Klucel (hydroxypropylcellulose) (HPC)) 101 % of control; (dose: 200.0 mg/kg/injection, schedule: Q01DX005 (ip), vehicle: Klucel (hydroxypropylcellulose) (HPC)) 98 % of control.
Regarding `O=c1[nH]c2ccccc2[nH]1`, the T/C is 114 % of control and 98 % of control (dose: 50.0 mg/kg/injection, schedule: Q01DX009 (ip), vehicle: Klucel (hydroxypropylcellulose) (HPC)); 99 % of control and 90 % of control (dose: 50.0 mg/kg/injection, schedule: Q01DX009 (ip), vehicle: suspension in saline); 107 % of control and 98 % of control (dose: 100.0 mg/kg/injection, schedule: Q01DX009 (ip), vehicle: Klucel (hydroxypropylcellulose) (HPC)); 100 % of control (dose: 100.0 mg/kg/injection, schedule: Q01DX009 (ip), vehicle: suspension in saline); 117 % of control (dose: 200.0 mg/kg/injection, schedule: Q01DX009 (ip), vehicle: Klucel (hydroxypropylcellulose) (HPC)); 101 % of control and 96 % of control (dose: 200.0 mg/kg/injection, schedule: Q01DX009 (ip), vehicle: suspension in saline). Besides, the T/C (dose: 400.0 mg/kg/injection, schedule: Q01DX009 (ip), vehicle: suspension in saline) is 101 % of control and 88 % of control.
Regarding `Nc1ccc2c(c1)CCCC2=O`, the T/C by setting is: under setting [8], 102 % of control; under setting [9], 93 % of control; under setting [10], 107 % of control.
For the compound `O=C(OCCN1CCN(CCOC(=O)C(Cl)(c2ccccc2)c2ccccc2)CC1)C(Cl)(c1ccccc1)c1ccccc1`, the T/C runs as follows: under setting [6], 95 % of control; (dose: 12.5 mg/kg/injection, schedule: Q01DX005 (ip), vehicle: saline with Tween-80) 93 % of control; (dose: 25.0 mg/kg/injection, schedule: Q01DX005 (ip), vehicle: saline with Tween-80) 95 % of control; under setting [2], 90 % of control.
With `Cc1ccc2no[n+]([O-])c2c1[N+](=O)[O-]`, the T/C runs as follows: under setting [1], 118 % of control and 119 % of control; under setting [2], 121 % of control; under setting [7], 150 % of control.
Consider `O=C(NCN1CCOCC1)Nc1ccccc1`, for which the T/C is 115 % of control under setting [1], 115 % of control under setting [2] and 112 % of control under setting [7].
Take `CC(CN(C)C)C(/C=C/c1ccccc1)=N\Nc1ccccc1` (centres undefined): the T/C is, setting by setting: (dose: 15.0 mg/kg/injection, schedule: Q01DX005 (ip), vehicle: saline) 98 % of control; (dose: 30.0 mg/kg/injection, schedule: Q01DX005 (ip), vehicle: saline) 103 % of control; (dose: 60.0 mg/kg/injection, schedule: Q01DX005 (ip), vehicle: saline) 99 % of control and 107 % of control.
`Cc1ccccc1NC(=O)OCCCl`: the T/C reads like this: under setting [8], 100 % of control; under setting [9], 100 % of control; under setting [10], 97 % of control.
With `FC(F)(F)C1=C(C(F)(F)F)SP(Cl)(c2ccccc2)(c2ccccc2)S1`, the T/C is 107 % of control (dose: 50.0 mg/kg/injection, schedule: Q04DX003 (ip), vehicle: other); 100 % of control (dose: 100.0 mg/kg/injection, schedule: Q04DX003 (ip), vehicle: other); 93 % of control (dose: 200.0 mg/kg/injection, schedule: Q04DX003 (ip), vehicle: other).
`CC(NN(C)C(=S)Nc1ccccc1)c1ccccn1` (centres undefined): the T/C by setting is: under setting [1], 100 % of control; under setting [2], 103 % of control; under setting [7], 109 % of control.
